Test results taken from US9751886B2, “4-amino-6-phenyl-6,7-dihydro[1,2,3]triazolo[1,5-A]pyrazine derivatives as inhibitors of beta-secretase (BACE)” (Janssen Pharmaceutica NV, priority 2013, dated 2017).

How the values were obtained:
[1] = tested on: Abeta 1-42 secreted by human neuroblastoma SKNBE2 cells expressing wild type hAPP695; assay: BACE1 cellular αLisa assay in SKNBE2 cells, Abeta 1-42; type: cell-based; conditions: 18 hours incubation; for IC50: Homo sapiens, read-out: Cellular αLisa assay in SKNBE2 cells Abeta 42 pIC50 (converted)
Procedure: (§1) In two αLisa assays the levels of Abeta total and Abeta 1-42 produced and secreted into the medium of human neuroblastoma SKNBE2 cells are quantified. The assay is based on the human neuroblastoma SKNBE2 expressing the wild type Amyloid Precursor Protein (hAPP695). The compounds are diluted and added to these cells, incubated for 18 hours and then measurements of Abeta 1-42 and Abeta total are taken. Abeta total and Abeta 1-42 are measured by sandwich αLisa. αLisa is a sandwich assay using biotinylated antibody AbN/25 attached to streptavidin coated beads and antibody Ab4G8 or cAb42/26 conjugated acceptor beads for the detection of Abeta total and Abeta 1-42 respectively. In the presence of Abeta total or Abeta 1-42, the beads come into close proximity. The excitation of the donor beads provokes the release of singlet oxygen molecules that trigger a cascade of energy transfer in the acceptor beads, resulting in light emission.

[2] = biological target: recombinant BACE1 protein (Homo sapiens (Human), UniProt P56817); assay: BACE1 Biochemical FRET based assay - Method 2; conditions: 0.04 μg/ml BACE1, 20 μM substrate, 450 min, pH 5.0
From the text: (§2) This assay is a Fluorescence Resonance Energy Transfer Assay (FRET) based assay. The substrate for this assay is an APP derived 13 amino acids peptide that contains the ‘Swedish’ Lys-Met/Asn-Leu mutation of the amyloid precursor protein (APP) beta-secretase cleavage site. This substrate also contains two fluorophores: (7-methoxycoumarin-4-yl) acetic acid (Mca) is a fluorescent donor with excitation wavelength at 320 nm and emission at 405 nm and 2,4-Dinitrophenyl (Dnp) is a proprietary quencher acceptor. […] Upon cleavage by BACE1, the fluorophore Mca is separated from the quenching group Dnp, restoring the full fluorescence yield of the donor. The increase in fluorescence is linearly related to the rate of proteolysis.
Briefly in a 384-well format recombinant BACE1 protein in a final concentration of 0.04 μg/ml is incubated for 450 minutes at room temperature with 20 μM substrate in incubation buffer (50 mM Citrate buffer pH 5.0, 0.05% PEG) in the presence of compound or DMSO. Next the amount of proteolysis is directly measured by fluorescence measurement (excitation at 320 nm and emission at 405 nm) at different incubation times (0, 30, 60, 90, 120 and 450 min). For every experiment a time curve (every 30 min between 0 min and 120 min) is used to determine the time where we find the lowest basal signal of the high control. The signal at this time (Tx) is used to subtract from the signal at 450 min. Results are expressed in RFU, as difference between T450 and Tx.

[3] = tested on: Abeta total secreted by human neuroblastoma SKNBE2 cells expressing wild type hAPP695; assay: BACE1 cellular αLisa assay in SKNBE2 cells, Abeta total; type: cell-based; conditions: 18 hours incubation; for IC50: Homo sapiens, read-out: Cellular αLisa assay in SKNBE2 cells Abetatotal pIC50 (converted)
Procedure: as §1

[4] = tested on: brain levels of soluble Aβ42, Aβ40; assay: In vivo Aβ lowering in non-transgenic rodents (MSD electrochemiluminescence); design: species or system mouse; conditions: untreated control = 100
From the text: To determine whether acute administration of an Aβ lowering agent would reduce Aβ levels in vivo, non-transgenic rodents, e.g. mice or rats were used. Animals treated with the Aβ lowering agent were examined and compared to those untreated or treated with vehicle and brain levels of soluble Aβ42, Aβ40, Aβ38, and Aβ37 were quantitated by Meso Scale Discovery's (MSD) electrochemiluminescence detection technology. Treatment periods varied from hours (h) to days and were adjusted based on the results of the Aβ lowering once a time course of onset of effect could be established.
A typical protocol for measuring Aβ lowering in vivo is shown but it is only one of many variations that could be used to optimize the levels of detectable A. For example, Aβ lowering compounds were formulated in 20% of Captisol® (a sulfo-butyl ether of β-cyclodextrin) in water or 20% hydroxypropyl β cyclodextrin. The Aβ lowering agents were administered as a single oral dose or by any acceptable route of administration to overnight fasted animals. […]
Blood was collected by decapitation and exsanguinations in EDTA-treated collection tubes. Blood was centrifuged at 1900 g for 10 minutes (min) at 4° C. and the plasma recovered and flash frozen for later analysis. The brain was removed from the cranium and hindbrain. The cerebellum was removed and the left and right hemisphere were separated. The left hemisphere was stored at −18° C. for quantitative analysis of test compound levels. The right hemisphere was rinsed with phosphate-buffered saline (PBS) buffer and immediately frozen on dry ice and stored at −80° C. until homogenization for biochemical assays.
Mouse brains from non-transgenic animals were resuspended in 8 volumes of 0.4% DEA (diethylamine)/50 mM NaCl containing protease inhibitors (Roche-11873580001 or 04693159001) per gram of tissue, e.g. for 0.158 g brain, add 1.264 ml of 0.4% DEA. All samples were homogenized in the FastPrep-24 system (MP Biomedicals) using lysing matrix D (MPBio #6913-100) at 6 m/s for 20 seconds. Homogenates were centrifuged at 20800×g for 5 min and supernatants collected. Supernatants were centrifuged at 221.300×g for 50 min. The resulting high speed supernatants were then transferred to fresh eppendorf tubes. Nine parts of supernatant were neutralized with 1 part 0.5 M Tris-HCl pH 6.8 and used to quantify Aβ.
To quantify the amount of Aβ42, Aβ40, Aβ38, and Aβ37 in the soluble fraction of the brain homogenates, simultaneous specific detection of Aβ42, Aβ40, Aβ38, and Aβ37 was performed using MSD's electro-chemiluminescence multiplex detection technology. In this assay purified monoclonal antibodies specific for Abeta37 (JRD/Aβ37/3), Abeta38 (J&JPRD/Aβ38/5), Abeta40 (JRF/cAβ40/28), and Abeta42 (JRF/cAβ(342/26) were coated on MSD 4-plex plates. Briefly, the standards (a dilution of synthetic Aβ42, Aβ40, Aβ38, and Aβ37) were prepared in 1.5 ml Eppendorf tube in Ultraculture, with final concentrations ranging from 10000 to 0.3 pg/m. The samples and standards were co-incubated with Sulfo-tag labelled JRF/rAβ/2 antibody to the N-terminus of Aβ as detector antibody. 50 μl of conjugate/sample or conjugate/standards mixtures were then added to the antibody-coated plate. The plate was allowed to incubate overnight at 4° C. in order to allow formation of the antibody-amyloid complex. Following this incubation and subsequent wash steps the assay was finished by adding read buffer according to the manufacturer's instructions (Meso Scale Discovery, Gaitherburg, Md.).
The SULFO-TAG emits light upon electrochemical stimulation initiated at the electrode. MSD Sector instrument SI6000 was used for signal read-out.
The results are shown in Table 8 (value for untreated animals as control (Ctrl) was set at 100): […]

[5] = biological target: recombinant BACE2 protein (Homo sapiens (Human), UniProt Q9Y5Z0); assay: BACE2 Biochemical FRET based assay; conditions: 0.4 μg/ml BACE2, 10 μM substrate, 450 min, pH 5.0
From the text: as §2, with “assay” for “assay is an APP derived 13 amino acids peptide that”, “the beta-secretase,” for “BACE1,”
Briefly in a 384-well format recombinant BACE2 protein in a final concentration of 0.4 μg/ml is incubated for 450 minutes at room temperature with 10 μM substrate in incubation buffer (50 mM Citrate buffer pH 5.0, 0.05% PEG, no DMSO) in the absence or presence of compound. Next the amount of proteolysis is directly measured by fluorescence measurement at T=0 and T=450 (excitation at 320 nm and emission at 405 nm). Results are expressed in RFU (Relative Fluorescence Units), as difference between T450 and TO.

[6] = dose 10, s.c., 2 h after administration
[7] = dose 10, s.c., 4 h after administration
[8] = dose 10, p.o., 2 h after administration
[9] = dose 10, p.o., 4 h after administration

Chain of recombinant BACE2 protein (Q9Y5Z0 63-518): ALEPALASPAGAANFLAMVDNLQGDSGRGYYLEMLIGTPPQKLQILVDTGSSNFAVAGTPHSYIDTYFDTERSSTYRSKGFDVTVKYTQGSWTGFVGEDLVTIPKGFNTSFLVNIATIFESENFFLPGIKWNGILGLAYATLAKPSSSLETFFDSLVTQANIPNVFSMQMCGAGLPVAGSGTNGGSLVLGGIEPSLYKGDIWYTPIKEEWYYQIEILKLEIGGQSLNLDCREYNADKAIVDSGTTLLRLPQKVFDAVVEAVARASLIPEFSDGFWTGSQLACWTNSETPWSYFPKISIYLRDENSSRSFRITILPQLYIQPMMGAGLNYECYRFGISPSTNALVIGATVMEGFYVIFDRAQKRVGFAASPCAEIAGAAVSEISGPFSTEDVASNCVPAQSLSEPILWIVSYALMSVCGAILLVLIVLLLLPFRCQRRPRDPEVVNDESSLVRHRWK
Chain of recombinant BACE1 protein (P56817 46-501): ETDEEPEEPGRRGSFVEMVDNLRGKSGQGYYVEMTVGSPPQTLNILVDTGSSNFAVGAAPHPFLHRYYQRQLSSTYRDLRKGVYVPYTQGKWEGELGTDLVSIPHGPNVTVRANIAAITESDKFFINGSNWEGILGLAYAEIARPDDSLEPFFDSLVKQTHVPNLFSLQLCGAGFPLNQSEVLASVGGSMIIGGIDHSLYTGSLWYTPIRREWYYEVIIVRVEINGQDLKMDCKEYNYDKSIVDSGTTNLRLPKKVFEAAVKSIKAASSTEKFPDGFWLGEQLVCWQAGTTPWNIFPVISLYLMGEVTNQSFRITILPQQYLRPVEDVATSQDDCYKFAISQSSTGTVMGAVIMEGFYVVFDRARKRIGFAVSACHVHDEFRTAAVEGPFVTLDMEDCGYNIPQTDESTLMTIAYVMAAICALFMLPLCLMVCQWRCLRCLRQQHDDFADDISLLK

Row | IC50 [1] | BACE1 Biochemical FRET based assay - Method 2 pIC50 [2] | IC50 [3] | BACE2 Biochemical FRET based assay pIC50 [5] | SMILES | other results
1 | 4.68 nM | 8.36 | 4.47 nM |  | C[C@@]1(c2cc(NC(=O)c3ccc(F)cn3)cc(F)c2F)Cn2nncc2C(N)=N1 [Compound 8, N-{3-[(6R)-4-Amino-6-methyl-6,7-dihydro[1,2,3]triazolo[1,5-a]pyrazin-6-yl]-4,5-difluorophenyl}-5-fluoropyridine-2-carboxamide] | Aβ40 (% vs Ctrl)_Mean [4, 6]: 56 % vs Ctrl; Aβ42 (% vs Ctrl)_Mean [4, 6]: 56 % vs Ctrl; Aβ40 (% vs Ctrl)_Mean [4, 7]: 136 % vs Ctrl; Aβ42 (% vs Ctrl)_Mean [4, 7]: 105 % vs Ctrl
2 | 24.5 nM | 8.39 | 24.5 nM | 8.49 | NC1=N[C@](CF)(c2cc(NC(=O)c3ccc(F)cn3)ccc2F)Cn2nncc21 [Compound 10, N-{3-[(6R)-4-amino-6-(fluoromethyl)-6,7-dihydro[1,2,3]triazolo[1,5-a]pyrazin-6-yl]-4-fluorophenyl}-5-fluoropyridine-2-carboxamide] | Aβ40 (% vs Ctrl)_Mean [4, 8]: 95 % vs Ctrl; Aβ42 (% vs Ctrl)_Mean [4, 8]: 79 % vs Ctrl; Aβ40 (% vs Ctrl)_Mean [4, 9]: 116 % vs Ctrl; Aβ42 (% vs Ctrl)_Mean [4, 9]: 87 % vs Ctrl
3 | 3.72 nM | 8.72 | 3.09 nM | 8.73 | C[C@@]1(c2cc(NC(=O)c3nn(C(F)F)cc3Cl)ccc2F)Cn2nncc2C(N)=N1 [Compound 5, N-{3-[(6R)-4-Amino-6-methyl-6,7-dihydro[1,2,3]triazolo[1,5-a]pyrazin-6-yl]-4-fluorophenyl}-4-chloro-1-(difluoromethyl)-1H-pyrazole-3-carboxamide] | 
4 |  | 8.51 |  | 7.22 | C[C@@]1(c2cc(NC(=O)c3cnc(OCC(F)(F)F)cn3)ccc2F)Cn2nncc2C(N)=N1 [Compound 6, N-{3-[(6R)-4-amino-6-methyl-6,7-dihydro[1,2,3]triazolo[1,5-a]pyrazin-6-yl]-4-fluoropheny}-5-(2,2,2-trifluoroethoxy)pyrazine-2-carboxamide] | Cellular αLisa assay in SKNBE2 cells Abeta 42 pIC50 [1]: 8.28; Cellular αLisa assay in SKNBE2 cells Abetatotal pIC50 [3]: 8.32
5 |  | 8.52 |  | 7.78 | C[C@@]1(c2cc(NC(=O)c3cnc(OCF)cn3)ccc2F)Cn2nncc2C(N)=N1 [Compound 7, N-{3-[(6R)-4-amino-6-methyl-6,7-dihydro[1,2,3]triazolo[1,5-a]pyrazin-6-yl]-4-fluoropheny}-5-(fluoromethoxy)pyrazine-2-carboxamide] | Cellular αLisa assay in SKNBE2 cells Abeta 42 pIC50 [1]: 8.87; Cellular αLisa assay in SKNBE2 cells Abetatotal pIC50 [3]: 8.86
6 | 57.5 nM |  | 56.2 nM |  | NC1=NC(CF)(c2cc(NC(=O)c3ccc(F)cn3)ccc2F)Cn2nncc21 (racemic) [Compound 9, (rac)-N-{3-[4-amino-6-(fluoromethyl)-6,7-dihydro[1,2,3]triazolo[1,5-a]pyrazin-6-yl]-4-fluorophenyl}-5-fluoropyridine-2-carboxamide] | IC50 ([2]; read-out: BACE1 Biochemical FRET based assay - Method 2 pIC50 (converted)): 8.32 nM; IC50 ([5]; read-out: BACE2 Biochemical FRET based assay pIC50 (converted)): 8.32 nM
7 | 4170 nM | 6.12 | 4470 nM | 6.3 | NC1=N[C@@](CF)(c2cc(NC(=O)c3ccc(F)cn3)ccc2F)Cn2nncc21 [Compound 11, N-{3-[(6S)-4-amino-6-(fluoromethyl)-6,7-dihydro[1,2,3]triazolo[1,5-a]pyrazin-6-yl]-4-fluorophenyl}-5-fluoropyridine-2-carboxamide] | 
8 | 1.1 nM |  | 1.05 nM |  | C[C@@]1(c2cc(NC(=O)c3ccc(C#N)cn3)ccc2F)Cn2nncc2C(N)=N1 [Compound 2, N-{3-[(6R)-4-Amino-6-methyl-6,7-dihydro[1,2,3]triazolo[1,5-a]pyrazin-6-yl]-4-fluorophenyl}-5-cyanopyridine-2-carboxamide] | Aβ40 (% vs Ctrl)_Mean [4, 6]: 44 % vs Ctrl; Aβ42 (% vs Ctrl)_Mean [4, 6]: 44 % vs Ctrl; Aβ40 (% vs Ctrl)_Mean [4, 7]: 61 % vs Ctrl; Aβ42 (% vs Ctrl)_Mean [4, 7]: 50 % vs Ctrl
